Measurements as given in ChEMBL document CHEMBL3045597, “Antihyperglycemic, -glucosidase inhibitory and DPPH free radical scavenging activity of 5-bromosalicylaldehyde and schiff bases” (Med Chem Res, 2011).
Calls of active or inactive are those of the source. The rule behind the calls is not given here.

Legend:
[1] = test system: Radical scavenging activity; assay: Antioxidant activity assessed as DPPH free radical scavenging activity at 250 uM after 20 min; format: functional
[2] = target: Lysosomal alpha-glucosidase (Rattus norvegicus) (UniProt Q6P7A9); assay: Inhibition of rat intestinal alpha-glucosidase using p-nitrophenyl- alpha-D-glucopyranoside as substrate at 200 uM preincubated for 5 min before addition of substrate measured after 10 min
Sequence of Lysosomal alpha-glucosidase (Rattus norvegicus) (Q6P7A9 whole entry): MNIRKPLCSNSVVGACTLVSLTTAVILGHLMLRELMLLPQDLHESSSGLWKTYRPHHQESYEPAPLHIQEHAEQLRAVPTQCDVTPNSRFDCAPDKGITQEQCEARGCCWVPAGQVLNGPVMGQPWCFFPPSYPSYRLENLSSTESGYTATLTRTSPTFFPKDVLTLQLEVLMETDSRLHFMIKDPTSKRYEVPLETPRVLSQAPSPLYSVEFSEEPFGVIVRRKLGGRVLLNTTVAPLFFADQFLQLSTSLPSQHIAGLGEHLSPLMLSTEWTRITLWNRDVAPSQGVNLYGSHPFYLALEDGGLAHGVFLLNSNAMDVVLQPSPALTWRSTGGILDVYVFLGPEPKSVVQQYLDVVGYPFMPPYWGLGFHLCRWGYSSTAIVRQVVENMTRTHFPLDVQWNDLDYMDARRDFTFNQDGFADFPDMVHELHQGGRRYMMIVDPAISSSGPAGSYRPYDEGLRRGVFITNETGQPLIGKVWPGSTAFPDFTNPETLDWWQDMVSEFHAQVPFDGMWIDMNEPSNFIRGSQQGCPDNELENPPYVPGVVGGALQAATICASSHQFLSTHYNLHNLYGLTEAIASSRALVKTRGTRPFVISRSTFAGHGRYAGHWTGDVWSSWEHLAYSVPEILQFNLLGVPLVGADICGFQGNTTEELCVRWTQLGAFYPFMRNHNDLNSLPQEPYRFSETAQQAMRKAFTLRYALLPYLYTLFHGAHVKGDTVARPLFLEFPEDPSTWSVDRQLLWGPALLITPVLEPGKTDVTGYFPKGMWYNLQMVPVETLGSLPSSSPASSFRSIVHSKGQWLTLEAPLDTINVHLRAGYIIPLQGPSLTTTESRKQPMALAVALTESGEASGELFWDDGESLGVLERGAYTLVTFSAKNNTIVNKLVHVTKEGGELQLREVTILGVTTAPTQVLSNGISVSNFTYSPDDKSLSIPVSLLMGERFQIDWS

[3] = test system: Radical scavenging activity; assay: Antioxidant activity assessed as DPPH free radical scavenging activity by measuring 50% radical scavenging concentration after 20 min; format: functional
[4] = target: Lysosomal alpha-glucosidase (Rattus norvegicus) (UniProt Q6P7A9); assay: Inhibition of rat intestinal alpha-glucosidase using p-nitrophenyl- alpha-D-glucopyranoside as substrate at 300 uM preincubated for 5 min before addition of substrate measured after 10 min
Rattus norvegicus [5] = assay: Antihyperglycemic activity in starch fed Rattus norvegicus Wistar (rat) assessed as reduction of AUC of plasma glucose level at 50 mg/kg administered 15 min before starch feeding; format: functional, organism-based; set-up: dose 50 mg/kg
Rattus norvegicus [6] = assay: Antihyperglycemic activity in starch fed Rattus norvegicus Wistar (rat) assessed as reduction of plasma glucose level at 50 mg/kg administered 15 min before starch feeding measured up to 60 min; format: functional, organism-based; set-up: dose 50 mg/kg

Oc1ccc(Br)cc1/C=N/c1ccc(Cl)cc1
Activity [1]: 13.5% | inhibition [2]: inactive

C/C(=N\CC/N=C(\C)c1ccccc1)c1ccccc1
inhibition [2]: Active

O=[N+]([O-])c1ccc(/N=C/c2ccccc2O)cc1
Activity [1]: inactive | inhibition [2]: 95.6%

Oc1ccccc1/C=N\c1ccccc1/N=C/c1ccccc1O
Activity [1]: 75.3% | inhibition [2]: 57.9% | Activity [3]: 115 µM

COc1ccc(/N=C/c2cc(Br)ccc2O)cc1
Activity [1]: 48.7% | inhibition [2]: Active

Oc1ccc(Br)cc1/C=N/CC/N=C/c1cc(Br)ccc1O
Activity [1]: inactive | inhibition [2]: 14.4%

O=Cc1cc(Br)ccc1O
inhibition [4]: 85.8% | inhibition [2]: 85.8% | Activity (Rattus norvegicus [5]): Active | Activity (Rattus norvegicus [6]): Active

C/C(=N\NC(=O)c1ccccc1)c1ccc(C)cc1
inhibition [2]: 31.6%

Oc1ccccc1/C=N/c1ccc(Cl)cc1
Activity [1]: inactive | inhibition [2]: 6.63%

O=[N+]([O-])c1ccc(/N=C/c2cc(Br)ccc2O)cc1
Activity [1]: inactive | inhibition [2]: Active

Oc1ccccc1/C=N/CC/N=C/c1ccccc1O
Activity [1]: inactive | inhibition [2]: 29.1%

Oc1ccc(Br)cc1/C=N/c1ccccc1
Activity [1]: 9.27% | inhibition [2]: Active

COc1ccc(/N=C/c2ccccc2O)cc1
inhibition [2]: 11.4%

Oc1ccccc1/C=N/c1ccccc1
Activity [1]: 9.29% | inhibition [2]: Active
